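How tested: cells in 96-well plates exposed to compound for 48 hours at five concentrations. Here, GI50 denotes the concentration required for 50% inhibition of growth.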 Active and inactive are the calls of the source. No stated cut-off is given here; in the data, active = GI50 up to about 1.1 µM and inactive = higher.
Tests used:
Assay in all cases: NCI tumour cell line growth inhibition, 48 h
A549 = test system: A549
SNB-75 = test system: SNB-75
U-251 = test system: U-251
M14 = test system: M14
NCI/ADR-RES = test system: NCI/ADR-RES
MDA-N = test system: MDA-N
SN12C = test system: SN12C
RXF 393 = test system: RXF 393
K562 = test system: K562
CCRF-CEM = test system: CCRF-CEM
Hs-578T = test system: Hs-578T
KM12 = test system: KM12
T47D = test system: T47D
PC-3 = test system: PC-3
HT-29 = test system: HT-29

| Compound | GI50 (A549) | GI50 (SNB-75) | GI50 (U-251) | GI50 (M14) | GI50 (NCI/ADR-RES) | GI50 (MDA-N) | GI50 (SN12C) | GI50 (RXF 393) | GI50 (K562) | GI50 (CCRF-CEM) | GI50 (Hs-578T) | GI50 (KM12) | GI50 (T47D) | GI50 (PC-3) | GI50 (HT-29) |
| --- | --- | --- | --- | --- | --- | --- | --- | --- | --- | --- | --- | --- | --- | --- | --- |
| O=C(CC(O)c1cccnc1)CC(O)c1cccnc1 (stereo unspecified) | 20.6 µM (inactive) | 14.5 µM (inactive) | 16.5 µM (inactive) | 14.2 µM (inactive) | 24 µM (inactive) | 7.26 µM (inactive) | 18.6 µM (inactive) | 16.7 µM (inactive) | 2.75 µM (inactive) | 3.02 µM (inactive) | 28.4 µM (inactive) | 11.1 µM (inactive) | 26.5 µM (inactive) | 15.8 µM (inactive) | 7.05 µM (inactive) |
| O=C1NC(=S)NC(=O)C1=Cc1ccc(-c2ccccc2)cc1 | > 100 µM (inactive) |  | 54.1 µM (inactive) | > 100 µM (inactive) | 27.9 µM (inactive) | > 100 µM (inactive) | > 100 µM (inactive) | 94.4 µM (inactive) | 31.6 µM (inactive) | 36.3 µM (inactive) | 79.4 µM (inactive) | > 100 µM (inactive) | > 100 µM (inactive) | > 100 µM (inactive) | > 100 µM (inactive) |
| COC(=O)C1CCC(=O)N1C(c1ccc(OC)cc1)c1ccc2c(c1)OCO2 (stereo unspecified) | 47.5 µM (inactive) | 20.2 µM (inactive) | 39.4 µM (inactive) | 28.5 µM (inactive) | 33.3 µM (inactive) | 7.46 µM (inactive) | 57.9 µM (inactive) |  | 23.4 µM (inactive) | 43.1 µM (inactive) | 36.2 µM (inactive) | 9.46 µM (inactive) | > 100 µM (inactive) | 45.3 µM (inactive) | 34.9 µM (inactive) |
| C/C(=N/O)c1cccc(Nc2nc3ccccc3c3[nH]c4ccccc4c23)c1 | 2.22 µM (inactive) |  | 3.16 µM (inactive) | 2.6 µM (inactive) | 2.99 µM (inactive) | 1.82 µM (inactive) | 3.4 µM (inactive) | 1.89 µM (inactive) | 3.44 µM (inactive) | 2.39 µM (inactive) | 3.24 µM (inactive) | 2.58 µM (inactive) | 1.52 µM (inactive) | 2.93 µM (inactive) | 1.57 µM (inactive) |
| CC(C)/C(Cl)=N\OC(=O)Nc1ccc(C#N)cc1 | 20 µM (inactive) | 17.7 µM (inactive) | 18 µM (inactive) | 3.01 µM (inactive) | 17.1 µM (inactive) | 6.01 µM (inactive) | 13.7 µM (inactive) | 1.85 µM (inactive) | 2 µM (inactive) | 1.05 µM (active) | 15.1 µM (inactive) | 15.8 µM (inactive) | 5.77 µM (inactive) | 16.5 µM (inactive) | 21 µM (inactive) |
| O=C1OCc2c1cc1cc3c(cc1c2-c1ccc2c(c1)OCO2)OCO3.O=C1OCc2cc3cc4c(cc3c(-c3ccc5c(c3)OCO5)c21)OCO4 |  | 10 µM (inactive) | 13.2 µM (inactive) | 4.47 µM (inactive) | 4.68 µM (inactive) | 1.41 µM (inactive) | 15 µM (inactive) | 5.73 µM (inactive) | 0.979 µM (active) | 3.34 µM (inactive) | 14.5 µM (inactive) | 11.1 µM (inactive) | 24.5 µM (inactive) | 8.38 µM (inactive) | 7.23 µM (inactive) |
| Cc1cc2c(cc1C)[n+]([O-])c(C(=O)N1CCN(c3ccc([N+](=O)[O-])cc3)CC1)c(C)[n+]2[O-] | 82.2 µM (inactive) |  | 11.9 µM (inactive) | 32.5 µM (inactive) | > 100 µM (inactive) | > 100 µM (inactive) | 63.7 µM (inactive) | 14.4 µM (inactive) | > 100 µM (inactive) | > 100 µM (inactive) | 96.2 µM (inactive) | > 100 µM (inactive) | 63.2 µM (inactive) | 93.3 µM (inactive) | > 100 µM (inactive) |
| CN1C(=O)C2(C)SC1(c1ccccc1)C1C(=O)N(c3ccccc3)C(=O)C12 (stereo unspecified) | 49.8 µM (inactive) |  | 67.9 µM (inactive) | > 100 µM (inactive) | 38.6 µM (inactive) | > 100 µM (inactive) | > 100 µM (inactive) | > 100 µM (inactive) | 57.4 µM (inactive) |  | > 100 µM (inactive) | 66.1 µM (inactive) | 52.2 µM (inactive) | 43.4 µM (inactive) | 76.2 µM (inactive) |
| C=CCOc1ccc(C2c3c(n[nH]c3O)CC(C)(O)C2C(=O)OC)cc1OC (stereo unspecified) | > 100 µM (inactive) | > 100 µM (inactive) | > 100 µM (inactive) | > 100 µM (inactive) | > 100 µM (inactive) | > 100 µM (inactive) | > 100 µM (inactive) |  |  | > 100 µM (inactive) | > 100 µM (inactive) | > 100 µM (inactive) | > 100 µM (inactive) | > 100 µM (inactive) | > 100 µM (inactive) |
| CC(C)(C)[Si](C)(C)O[C@@H](C(=O)OC1C=CCCC1)[C@@H](NC(=O)c1ccccc1)c1ccccc1 (stereo partly specified) | 17.6 µM (inactive) | 27.7 µM (inactive) | 18.2 µM (inactive) |  | 28.6 µM (inactive) | 31 µM (inactive) | 21 µM (inactive) | 3.68 µM (inactive) | 14 µM (inactive) | 12.1 µM (inactive) | 53.6 µM (inactive) | 25.6 µM (inactive) | 20 µM (inactive) | 9.1 µM (inactive) | 14.3 µM (inactive) |
| CN(CCCN=C=S)CCCN1c2ccccc2CCc2ccccc21 | 1.71 µM (inactive) |  | 1.81 µM (inactive) | 1.71 µM (inactive) | 1.29 µM (inactive) | 1.71 µM (inactive) | 1.69 µM (inactive) | 1.92 µM (inactive) | 0.45 µM (active) | 1.85 µM (inactive) | 2.04 µM (inactive) | 1.73 µM (inactive) | 2.07 µM (inactive) | 1.69 µM (inactive) | 1.51 µM (inactive) |
| Cc1ccc(/C=N/n2c(Cc3ccccc3)n[nH]c2=O)cc1 | > 100 µM (inactive) | 40.2 µM (inactive) |  | > 100 µM (inactive) | > 100 µM (inactive) | > 100 µM (inactive) | > 100 µM (inactive) | > 100 µM (inactive) | > 100 µM (inactive) | > 100 µM (inactive) | 65.2 µM (inactive) | > 100 µM (inactive) | > 100 µM (inactive) | > 100 µM (inactive) | > 100 µM (inactive) |
| Clc1ccc(Cc2nc3cc(Cl)c(Cl)cc3n2CC2CCCN3CCCCC23)cc1Cl (stereo unspecified) | 4.93 µM (inactive) | 4.53 µM (inactive) | 3.86 µM (inactive) | 2.01 µM (inactive) | 4.46 µM (inactive) | 4.79 µM (inactive) | 4.13 µM (inactive) | 7.53 µM (inactive) | 3.26 µM (inactive) |  | 3.4 µM (inactive) | 2.19 µM (inactive) | 7.29 µM (inactive) | 4.12 µM (inactive) | 2.43 µM (inactive) |
| COc1cc(C2c3cc4c(cc3[C@@H](Nc3ccc(F)cc3)C3COC[C@H]23)OCO4)cc(OC)c1O (stereo partly specified) | 0.451 µM (active) | 2.77 µM (inactive) | 0.811 µM (active) | 2.22 µM (inactive) | 6.92 µM (inactive) | 7.66 µM (inactive) | 2 µM (inactive) |  | 4.19 µM (inactive) | 0.622 µM (active) | 0.589 µM (active) | 4.66 µM (inactive) | 1.74 µM (inactive) | 3.26 µM (inactive) | 3.44 µM (inactive) |

Source: ChEMBL document CHEMBL1201862, “PubChem BioAssay data set” (2004)
